Results taken from patent publication US20260078103A1, “ISOQUINOLONES AS PI3K INHIBITORS” (OnKure, Inc., priority 2022, published 2026).
pEC50, pIC50: −log10 of the molar value. Like-named read-outs stand apart in the source and are kept apart here.

Legend:
Assay type in all cases: cell-based
[1] = system: T47D cells expressing mutant PI3Ka (H1047R); assay: In vitro cell proliferation, T47D cells (CellTiter-Glo); settings: inhibition of proliferation, read-out: Avg T-47D EC50
Outline: (§1)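 T47D (PI3Kα H1047R; RPMI, 10% FBS, insulin 0.2 units/mL) or SKBR3 (WT PI3Kα; McCoys 5a, 10% FBS) cells seeded at 1,500 cells/well on 10-point compound dilutions, grown 72 h at 37 °C. CellTiter-Glo luminescence; inhibition normalised to 0.1% DMSO and 10 uM alpelisib, EC50 from four-parameter fit.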

[2] = system: SKBR3 cells express WT PI3Ka; assay: In vitro cell proliferation, SKBR3 cells (CellTiter-Glo); settings: inhibition of proliferation
Outline: as §1

[3] = system: phosphorylation of AKT (pAKT) in T47D cells expressing mutant PI3Ka (H1047R); assay: In vitro cell pAKT (Ser473) HTRF, T47D cells; settings: cellular pAKT, T47D cells, mutant PI3Ka (H1047R), 6 hours, read-out: Avg T-47D IC50
Outline: (§2)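 T47D cells (RPMI, 10% FBS, 0.2 units/mL insulin) or SKBR3 cells (McCoy's 5a, 10% FBS) were seeded onto 10-point compound dilutions and incubated 6 h at 37 °C. After lysis, pAKT was detected overnight by HTRF (Eu cryptate/d2). IC50 was fitted from % inhibition relative to 0.1% DMSO and 10 uM alpelisib controls.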

[4] = system: phosphorylation of AKT (pAKT) in SKBR3 cells express WT PI3Ka; assay: In vitro cell pAKT (Ser473) HTRF, SKBR3 cells; settings: cellular pAKT
Outline: as §2

| Structure (SMILES) | pEC50 ([1]; 72 hours) | pEC50 ([2]; 72 hours) | pIC50 [3] | pIC50 ([4]; 6 hours) | pEC50 ([1]; Homo sapiens, T47D, 72 h) | pEC50 ([2]; Homo sapiens, SK-BR-3, 72 h) | pIC50 ([3]; Homo sapiens, T47D, 6 h) | pIC50 ([4]; Homo sapiens, SK-BR-3, 6 h) |
| --- | --- | --- | --- | --- | --- | --- | --- | --- |
| Cc1cc([C@@H](C)Nc2ccc(Cl)nc2C(=O)O)c2cc(-c3cnc(C(C)C)nc3)n(C)c(=O)c2c1 [Example 329] |  |  |  |  | 6.30 to 9.00 | 4.82 to 5.70 | 6.30 to 9.00 | 4.82 to 5.70 |
| Cc1cc([C@@H](C)Nc2ccccc2C(=O)O)c2cc(-c3ccc4c(c3)OC(F)(F)O4)n(C)c(=O)c2c1 [Example 330] |  |  |  |  | 5.70 to 6.30 | < 4.82 | 6.30 to 9.00 | < 4.82 |
| Cc1cc([C@@H](C)Nc2ccccc2C(=O)O)c2cc(-c3ccc(C4(C#N)CC4)nc3)n(C)c(=O)c2c1 [Example 331] |  |  |  |  | 6.30 to 9.00 | < 4.82 | 6.30 to 9.00 | < 4.82 |
| Cc1cc([C@@H](C)Nc2ccccc2C(=O)O)c2cc(OCC(F)(F)F)n(C)c(=O)c2c1 [Example 332] |  |  |  |  | 5.70 to 6.30 | < 4.82 | 6.30 to 9.00 | < 4.82 |
| Cc1cc([C@@H](C)Nc2ccccc2C(=O)O)c2cc(OCC3(C)CC3)n(C)c(=O)c2c1 [Example 333] |  |  |  |  | 6.30 to 9.00 | < 4.82 | 6.30 to 9.00 | < 4.82 |
| Cc1cc([C@@H](C)Nc2ccccc2C(=O)O)c2cc(OCc3ccc(C)nc3)n(C)c(=O)c2c1 [Example 334] |  |  |  |  | 6.30 to 9.00 | < 4.82 | 6.30 to 9.00 | < 4.82 |
| Cc1cc([C@@H](C)Nc2ccccc2C(=O)O)c2cc(OCc3ccccn3)n(C)c(=O)c2c1 [Example 335] |  |  |  |  | 5.70 to 6.30 | < 4.82 | 6.30 to 9.00 | < 4.82 |
| CC(C)c1ncc(-c2cc3c([C@@H](C)Nc4ccccc4C(=O)O)cc(Cl)cc3c(=O)n2C)cn1 [Example 337] |  |  |  |  | 6.30 to 9.00 | < 4.82 | 6.30 to 9.00 | < 4.82 |
| Cc1cc([C@@H](C)Nc2ccccc2C(=O)O)c2cc(-c3cccc(C(F)F)n3)n(C)c(=O)c2c1 [Example 338] |  |  |  |  | 6.30 to 9.00 | 4.82 to 5.70 | 6.30 to 9.00 | < 4.82 |
| Cc1cc([C@@H](C)Nc2ccccc2C(=O)O)c2cc(OC3CC3)n(C)c(=O)c2c1 [Example 339] |  |  |  |  | 5.70 to 6.30 | < 4.82 | 6.30 to 9.00 | < 4.82 |
| Cc1cc([C@@H](C)Nc2ccccc2C(=O)O)c2cc(-c3cnc(C(F)F)nc3)n(C)c(=O)c2c1 [Example 341] |  |  |  |  | 6.30 to 9.00 | < 4.82 | 6.30 to 9.00 | < 4.82 |
| Cc1cc([C@@H](C)Nc2ccccc2C(=O)O)c2cc(OCc3ccnc(C)c3)n(C)c(=O)c2c1 [Example 342] |  |  |  |  | 6.30 to 9.00 | < 4.82 | 6.30 to 9.00 | < 4.82 |
| C[C@@H](Nc1ccccc1C(=O)O)c1cc(F)cc2c(=O)n(C)c(-c3cnc(C4CC4)s3)cc12 [Example 344] |  |  |  |  | 6.30 to 9.00 | < 4.82 | 6.30 to 9.00 | < 4.82 |
| C[C@@H](Nc1ccccc1C(=O)O)c1cc(F)cc2c(=O)n(C)c(-c3cnc(OC4CC4)s3)cc12 [Example 345] |  |  |  |  | 6.30 to 9.00 | < 4.82 | 6.30 to 9.00 | < 4.82 |
| Cc1cc([C@@H](C)Nc2ccccc2C(=O)O)c2cc(-c3cnc(CC(F)(F)F)nc3)n(C)c(=O)c2c1 [Example 348] |  |  |  |  | 6.30 to 9.00 | < 4.82 | 6.30 to 9.00 | < 4.82 |
| CCOc1ncc(-c2cc3c([C@@H](C)Nc4ccccc4C(=O)O)cc(F)cc3c(=O)n2C)s1 [Example 349] |  |  |  |  | 6.30 to 9.00 | < 4.82 | 6.30 to 9.00 | < 4.82 |
| CCOc1ncc(-c2cc3c([C@@H](C)Nc4cccc(F)c4C(=O)O)cc(F)cc3c(=O)n2C)s1 [Example 363] |  |  |  |  | 6.30 to 9.00 | < 4.82 | 6.30 to 9.00 | < 4.82 |

Results, then the molecule that gave them:

| pEC50 ([1]; 72 hours) | pEC50 ([2]; 72 hours) | pIC50 [3] | pIC50 ([4]; 6 hours) | pEC50 ([1]; Homo sapiens, T47D, 72 h) | pEC50 ([2]; Homo sapiens, SK-BR-3, 72 h) | pIC50 ([3]; Homo sapiens, T47D, 6 h) | pIC50 ([4]; Homo sapiens, SK-BR-3, 6 h) | Structure (SMILES) |
| --- | --- | --- | --- | --- | --- | --- | --- | --- |
| 6.30 to 9.00 | 4.82 to 5.70 | 5.70 to 6.30 | 4.82 to 5.70 |  |  |  |  | Cc1cc([C@@H](C)Nc2cccc(F)c2C(=O)O)c2cc(N3CCN(c4cncnc4C)CC3)n(C)c(=O)c2c1 [Example 325] |
|  |  |  |  | 6.30 to 9.00 | < 4.82 | 6.30 to 9.00 | < 4.82 | Cc1cc([C@@H](C)Nc2cccc(F)c2C(=O)O)c2cc(-c3ccc(C(C)(C)F)nc3)n(C)c(=O)c2c1 [Example 326] |
| 5.70 to 6.30 | < 4.82 | 5.70 to 6.30 | 4.82 to 5.70 |  |  |  |  | Cc1cc([C@@H](C)Nc2ccc(Cl)c(F)c2C(=O)O)c2cc(N3CCN(CC(F)(F)F)CC3)n(C)c(=O)c2c1 [Example 327] |
|  |  |  |  | 5.70 to 6.30 | 4.82 to 5.70 | 5.70 to 6.30 | < 4.82 | Cc1cc([C@@H](C)Nc2cccc(F)c2C(=O)O)c2cc(N3CCN(c4cc(C)ncn4)CC3)n(C)c(=O)c2c1 [Example 328] |
|  |  |  |  | 6.30 to 9.00 | 4.82 to 5.70 | 6.30 to 9.00 | 4.82 to 5.70 | Cc1cc([C@@H](C)Nc2ccc(Cl)nc2C(=O)O)c2cc(N3CCN(CC(F)(F)F)CC3)n(C)c(=O)c2c1 [Example 336] |
|  |  |  |  | 6.30 to 9.00 | < 4.82 | 6.30 to 9.00 | 4.82 to 5.70 | Cc1cc([C@@H](C)Nc2ccccc2C(=O)O)c2cc(N3CCN(c4nccs4)CC3)n(C)c(=O)c2c1 [Example 340] |
|  |  |  |  | 6.30 to 9.00 | 4.82 to 5.70 | 6.30 to 9.00 | 4.82 to 5.70 | Cc1cc([C@@H](C)Nc2cccc(F)c2C(=O)O)c2cc(N3CCN(c4ccc(C)nc4C)CC3)n(C)c(=O)c2c1 [Example 343] |
|  |  |  |  | 6.30 to 9.00 | < 4.82 | 6.30 to 9.00 | < 4.82 | COC(C)(C)c1ncc(-c2cc3c([C@@H](C)Nc4cccc(F)c4C(=O)O)cc(C)cc3c(=O)n2C)cc1F [Example 346] |
|  |  |  |  | 6.30 to 9.00 | < 4.82 | 6.30 to 9.00 | < 4.82 | CCOc1ncc(-c2cc3c([C@@H](C)Nc4cccc(F)c4C(=O)O)cc(C)cc3c(=O)n2C)s1 [Example 347] |
|  |  |  |  | 6.30 to 9.00 | < 4.82 | 6.30 to 9.00 | < 4.82 | CCON1CCN(c2cc3c([C@@H](C)Nc4cccc(F)c4C(=O)O)cc(C)cc3c(=O)n2C)CC1 [Example 350] |
|  |  |  |  | 6.30 to 9.00 | < 4.82 | 6.30 to 9.00 | < 4.82 | Cc1cc([C@@H](C)Nc2cccc(F)c2C(=O)O)c2cc(-c3ccc(OC4CC4)nc3)n(C)c(=O)c2c1 [Example 351] |
|  |  |  |  | 6.30 to 9.00 | 4.82 to 5.70 | 6.30 to 9.00 | 4.82 to 5.70 | Cc1cc([C@@H](C)Nc2cccc(F)c2C(=O)O)c2cc(N3CCN(c4ccc(C)nc4)CC3)n(C)c(=O)c2c1 [Example 352] |
|  |  |  |  | 6.30 to 9.00 | 4.82 to 5.70 | 6.30 to 9.00 | 5.70 to 6.30 | Cc1ccc(N2CCN(c3cc4c([C@@H](C)Nc5ccccc5C(=O)O)cc(F)cc4c(=O)n3C)CC2)cn1 [Example 353] |
| 4.82 to 5.70 | < 4.82 | 4.82 to 5.70 | < 4.82 |  |  |  |  | Cc1cc(C(C)Nc2cccc(C#N)c2C(=O)O)c2cc(N3CCN(CC(F)(F)F)CC3)n(C)c(=O)c2c1 (stereo not drawn) [Example 354] |
|  |  |  |  | 6.30 to 9.00 | 4.82 to 5.70 | 6.30 to 9.00 | 4.82 to 5.70 | Cc1ccc(N2CCN(c3cc4c([C@@H](C)Nc5cccc(F)c5C(=O)O)cc(F)cc4c(=O)n3C)CC2)cn1 [Example 362] |
|  |  |  |  | 6.30 to 9.00 | 4.82 to 5.70 | 6.30 to 9.00 | 5.70 to 6.30 | Cc1cc([C@@H](C)Nc2ccccc2C(=O)O)c2cc(N3CCN(c4cnc(C)s4)CC3)n(C)c(=O)c2c1 [Example 364] |
